In patent US20140294873A1, “SMALL MOLECULE SCREEN FOR INHIBITORS OF NFAT: AP-1: DNA INTERACTIONS” (CHILDREN'S MEDICAL CENTER CORPORATION, priority 2011, published 2014):
Entries after “also recorded” stand apart in the source; their conditions may differ.

T1: NFAT:DNA complex (Homo sapiens, UniProt Q13469)
T1 construct: The NFAT DBD containing a His tag was cloned into the pQE vector; His tag (MRGSHHHHHH leader) (N); made in house
T1 sequence (Q13469 with tags, fused parts or gaps): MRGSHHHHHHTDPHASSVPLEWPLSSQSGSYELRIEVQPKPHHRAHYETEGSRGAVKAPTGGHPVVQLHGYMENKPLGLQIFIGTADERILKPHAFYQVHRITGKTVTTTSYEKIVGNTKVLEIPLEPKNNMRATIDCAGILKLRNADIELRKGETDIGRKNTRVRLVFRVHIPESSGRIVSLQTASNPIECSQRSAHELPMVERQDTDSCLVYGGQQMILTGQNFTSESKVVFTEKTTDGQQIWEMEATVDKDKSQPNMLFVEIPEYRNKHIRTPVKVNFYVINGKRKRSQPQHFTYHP

T2: NFAT DNA-binding domain (NFAT-DBD) (UniProt Q13469 SEQ:15-300)
T2 chain: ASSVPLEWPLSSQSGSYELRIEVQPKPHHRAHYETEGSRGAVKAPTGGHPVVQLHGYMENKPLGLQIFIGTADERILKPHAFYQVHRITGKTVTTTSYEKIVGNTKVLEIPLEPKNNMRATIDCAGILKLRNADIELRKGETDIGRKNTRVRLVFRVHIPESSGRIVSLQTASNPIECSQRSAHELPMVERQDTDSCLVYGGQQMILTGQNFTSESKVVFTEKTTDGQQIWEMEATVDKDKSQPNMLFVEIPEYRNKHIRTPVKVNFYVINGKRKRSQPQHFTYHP


What was measured:
[1] = test system: IFNγ production in 2D2 CD4 T cells; test: IFNγ production after compound treatment during Th1 activation; type: cell-based, mouse; details: 7.8 μM during activation under Th1 conditions, compared to DMSO
Method: (§1) T cell activation assays: Mouse CD4 T cells were isolated using the Dynal CD4 T cell positive isolation kit (Invitrogen) and activated with 1 μg/mL αCD3/αCD28 for 48-60 h under non-polarizing or Th1-conditions (10 ng/mL IL-12 and 10 μg/mL αIL-4). CD4CD25+ T cells were depleted from purified CD4 T cells using a CD25 microbead MACS kit (Miltenyi Biotech), and CD4CD25− T cells were activated with αCD3/αCD28 in the presence of 3 ng/mL TGF[…] (iTreg-polarizing conditions).
(§2) For restimulation, T cells from primary cultures were rested for 3-4 d, washed, counted and stimulated for 4 h with 10 nM PMA and varied concentrations of ionomycin; where indicated, CsA was added to cells at a final concentration of 2 μM 20′ before activation while compounds were added 45-60′ before activation. Brefeldin A was added at 10 μg/mL for the final 2-2.5 h of stimulation. T cells were fixed with 4% paraformaldehyde, permeabilized in saponin buffer and stained for intracellular cytokines; data were collected on a FACSCalibur instrument (BD Biosciences).

CD4 T cells = test: Cytotoxicity / live cell numbers in restimulated CD4 T cells; type: cell-based, mouse; details: for cell numbers within the live cell gate: 4 h restimulation with compound; for cytotoxicity: at the concentrations tested
Method: as §2

[2] = test system: IL-2 and TNFα production in activated CD4 T cells; test: Intracellular cytokine FACS in restimulated CD4 T cells; type: cell-based, mouse; details: for inhibition of IL-2/TNFα production: restimulation with αCD3/αCD28 instead of PMA/ionomycin
Method: as §1, §2

[3] = test system: proinflammatory mediator mRNA in Th1 cells; test: Real time RT-PCR of T cells used for EAE induction; type: cell-based, mouse; details: for IL-2 mRNA transcript / IL-24 transcript levels / IP-10 transcript levels: compared to DMSO controls
Description: (§3) Real time RT-PCR: Total RNA was isolated from cell pellets using the RNeasy kit (Qiagen) followed by first-strand synthesis using SuperScript III (Invitrogen). Synthesized cDNA was amplified using the FastStart Universal SYBRGreen Master Mix (Roche). PCR data was collected using the StepOne Plus Real-Time PCR System (Applied Biosystems) and gene expression normalized to an endogenous GAPDH control using the ΔΔCT method; primer sequences have been described elsewhere.

Foxp3 = test: Treg-associated gene upregulation under iTreg-polarizing conditions (real time RT-PCR); type: cell-based, mouse; details: activation in the presence of TGFβ (iTreg polarizing)
Method: as §1, §3

EAE in C57BL/6 mice = test: Passive transfer EAE with compound-treated 2D2 Th1 cells; type: in vivo, mouse
Method: EAE induction: CD4 T cells from 2D2 transgenic mice were activated with 0.2 μg/mL αCD3/αCD28 under Th1-polarizing conditions for 48-60 h in the presence of DMSO or compound as indicated. T cells were rested and expanded for 2 d followed by restimulation with 0.1 μg/mL αCD3/αCD28 for 24 h in the presence of DMSO or compound. Cells were resuspended in 1×PBS and injected intraperitoneally into female 8 wk old C57BL/6 mice, 1.5 million T cells per mouse. Mice were monitored for weight loss and development of disease symptoms using a standard clinical scale: 0, healthy; 1, flaccid tail; 2, ataxia/paresis of hind limbs; 3, paralysis of hind limbs; 4, tetraparalysis; 5, moribund or death W.

NFAT:DNA complex = biological target: T1, NFAT:DNA complex; test: EMSA, NFAT:DNA complex; type: binding; details: high concentration (6.25 mM)
Method: (§4) EMSAs: Probe labeling: Annealed double-stranded ARRE2 was end-labeled using T4 polynucleotide kinase by incubating 50-100 ng DNA with 20 μCi 32P-γATP (Perkin Elmer) at 37° C. for 1 h followed by heat inactivation of the enzyme at 65° C. for 15′ and purification of radiolabeled ARRE2 using MicroSpin G-25 columns (GE Biosciences).
(§5) Binding reactions were set up in EMSA buffer (10 mM HEPES pH=7.5, 120 mM NaCl, 10% glycerol, 0.8 mg/mL BSA, 1 mM DTT) in the presence of complete protease inhibitor (Roche). Compounds CID 2740816 (1668 P02) and CID 5713461 (1661 N20) (Ryan Scientific) were resuspended in DMSO and incubated with 20 nM NFAT and 10 nM AP-1 for 10′ followed by addition of ˜2.5 nM radiolabeled ARRE2 probe. Reactions were then incubated for 30′ at room temperature and loaded on a 4% polyacrylamide gel (pre-run for 30-45′).

IL-17 in CD4 T cells = test: IL-17 levels after compound treatment during primary Th17 differentiation; type: cell-based, mouse
NFAT:AP-1:DNA complex = biological target: T3, NFAT:AP-1:DNA complex (Homo sapiens, UniProt P01100+P05412+Q13469, C154S/C269S); test: EMSA, NFAT:AP-1:DNA complex formation; type: binding; details: for assembly of the ternary complex: 6.25 mM compound; for inhibition of formation of the NFAT:AP-1:DNA complex: 32P end-labeled ARRE2, compound added before probe; for inhibition of NFAT:AP-1:DNA complex formation: compound in the 0-300 μM range
T3 construct: The NFAT DBD containing a His tag was cloned into the pQE vector; Fos and Jun bZIP domains (each encompassing 63 amino acids) were cloned into pETa vectors; His tag ([…] leader) (N); made in house; host or cells: E. coli Codon Plus BL21 (DE3) RIL for Fos and Jun; bacterial expression from a pQE vector for NFAT DBD
Method: as §4, §5

CD69 = CD69 upregulation in restimulated CD4 T cells; type: cell-based, mouse; details: 4 h activation period, also at high concentrations
Method: as §2

[4] = biological target: T2, NFAT DNA-binding domain (NFAT-DBD); test: EMSA; details: tags: His tag (MRGSHHHH..), pQE vector, E. coli; label: 32P 5'-end
[5] = 10 nM PMA/100 nM ionomycin, 4 h
[6] = 10 nM PMA, ionomycin 100 nM or 300 nM
[7] = Th1 cells treated with 7.8 μM compound, IP transfer
[8] = compared to 1668 P02- or DMSO-treated Th1 transfer groups

T3 sequence (P01100 with tags, fused parts or gaps C154S, one chain of several): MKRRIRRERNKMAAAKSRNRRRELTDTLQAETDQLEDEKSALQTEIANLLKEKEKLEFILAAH
T3 sequence (P05412 with tags, fused parts or gaps C269S, one chain of several): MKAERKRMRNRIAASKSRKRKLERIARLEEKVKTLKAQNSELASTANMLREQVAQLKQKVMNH

Molecule | levels of IFNγ production [1] | cell numbers within the live cell gate (CD4 T cells) | cytotoxicity (CD4 T cells) | inhibition of IL-2 and TNFα production [2, 5] | inhibition of IL-2 and TNFα production ([2]; 10 nM PMA/500 nM ionomycin) | inhibition of IL-2/TNFα production [2] | IL-2 mRNA transcript [3] | IL-24 transcript levels [3] | IP-10 transcript levels [3] | upregulation of Treg-associated genes, notably Foxp3 (Foxp3) | effect on the NFAT:DNA complex (NFAT:DNA complex) | IL-17 levels upon restimulation (IL-17 in CD4 T cells) | assembly of the ternary complex (NFAT:AP-1:DNA complex) | inhibition of formation of the NFAT:AP-1:DNA complex (NFAT:AP-1:DNA complex) | inhibition of NFAT:AP-1:DNA complex formation (NFAT:AP-1:DNA complex) | upregulation of CD69 (CD69) | also measured
O=C1CCCC(=O)C1=NNc1cc(C(F)(F)F)ccc1OCC(F)(F)F [1668 P02] | slight decrease | no apparent change; also recorded: unchanged | neither compound appeared to be cytotoxic | inhibit production | to a lesser extent | acute inhibition | not statistically significant | remained unchanged | actually higher | did not affect | unaffected; also recorded: neither compound had an inhibitory effect | remained unchanged | almost abrogate | modestly inhibit | modest inhibition | not affected; also recorded: unaffected | disease curve relative to DMSO-treated Th1 transfer group (EAE in C57BL/6 mice; Th1 cells treated with compound, IP transfer): overlapping disease curves
N#C/C(=N/Nc1ccc2c(c1)OCO2)C(=O)N1CCCC1 [1661 N20] | slight decrease | no apparent change; also recorded: unchanged | neither compound appeared to be cytotoxic | inhibit production | inhibitory | acute inhibition | highly significant reduction | remained unchanged | actually higher | did not affect | unaffected; also recorded: neither compound had an inhibitory effect | remained unchanged | almost abrogate | modestly inhibit | modest inhibition | not affected; also recorded: unaffected | reduction in MFI of IL-2 [2, 6]: ≤ 50%; reduction in MFI of TNFα [2, 6]: ≤ 50%; GM-CSF transcript levels ([3]; relative to DMSO controls): significantly reduced; levels of IFNγ mRNA ([3]; relative to DMSO controls): significantly reduced; kinetics of disease development (EAE in C57BL/6 mice; [7]): clearly delayed kinetics; severity of clinical symptoms of EAE (EAE in C57BL/6 mice; [7]): reduced severity; also recorded: decreased severity; mean clinical score (EAE in C57BL/6 mice; [8]): significantly lower; percentage weight loss (EAE in C57BL/6 mice; [8]): significantly lower
ARRE2 probe, 32P (dsDNA) DNA 1: CCTTCTGTATGAAACAAATTTTCCTCTTTG DNA 2: CAAAGAGGAAAATTTGTTTCATACAGAAGG |  |  |  |  |  |  |  |  |  |  |  |  |  |  |  |  | binding result [4]: binds
